Legend:
male C57BL/6J mice = test: Head-twitch response (HTR); type: in vivo; conditions: IP, 30 min, doses based on the salt form
Protocol: (§1) Male Swiss CD-1 mice (Janvier, Le Genest, France), weighing 30–35 g and aged 6–8 weeks, were used for HLA, thigmotaxis, CPP, and core body temperature experiments. Animals were housed under temperature-controlled conditions (22 ± 1 °C) with a 12 h light/dark cycle and had free access to food and water (standard laboratory diet, Panlab SL, Barcelona, Spain). Doses for HLA, thigmotaxis, CPP, and core body temperature experiments were calculated based on the free base form of each compound. For HTR experiments, male C57BL/6J mice (6–8 weeks old) were obtained from Jackson Laboratories (Bar Harbor, ME, USA) and housed up to four per cage with a reversed light-cycle (lights on at 1900 h, off at 0700 h). Food and water were provided ad libitum, except during behavioral testing. Testing was conducted between 1000 and 1830 h. Doses for HTR experiments were calculated based on the respective salt forms of the compounds.
The HTR was assessed using a head-mounted magnet and a magnetometer detection coil. Mice were anesthetized, a small incision was made in the scalp, and a small neodymium magnet was attached to the dorsal surface of the cranium by using dental cement. Following a two week recovery period, HTR experiments were carried out in a well-lit room with at least 7 days between sessions to avoid carryover effects. Mice (N = 4–7/group) received intraperitoneal (IP) injections of vehicle (saline) or test drug (5 mL/kg injection volume), and then activity was recorded in a glass cylinder surrounded by a magnetometer coil for 30 min. Doses for HTR experiments were calculated based on the respective salt forms of the compounds. Coil voltage was low-pass filtered (1 kHz cutoff frequency), amplified, digitized (20 kHz sampling rate, 16-bit ADC resolution), and saved to disk using a Powerlab 8/35 data acquisition system with LabChart software (ver. 8.1 ADInstruments, Colorado Springs, CO, USA). To detect head twitches, events in the recordings were transformed to scalograms, deep features were extracted using the deep convolutional neural network ResNet-50, and then the images were classified using a support vector machine (SVM). Head twitch counts were analyzed using one-way ANOVA. Posthoc comparisons were made using Dunnett’s test.

[1] = target: T1, human organic cation transporter 1 (OCT1) (Homo sapiens, UniProt O15245); test: Uptake inhibition assay, [3H]MPP+ uptake in HEK293 cells
T1 sequence (O15245 1-554): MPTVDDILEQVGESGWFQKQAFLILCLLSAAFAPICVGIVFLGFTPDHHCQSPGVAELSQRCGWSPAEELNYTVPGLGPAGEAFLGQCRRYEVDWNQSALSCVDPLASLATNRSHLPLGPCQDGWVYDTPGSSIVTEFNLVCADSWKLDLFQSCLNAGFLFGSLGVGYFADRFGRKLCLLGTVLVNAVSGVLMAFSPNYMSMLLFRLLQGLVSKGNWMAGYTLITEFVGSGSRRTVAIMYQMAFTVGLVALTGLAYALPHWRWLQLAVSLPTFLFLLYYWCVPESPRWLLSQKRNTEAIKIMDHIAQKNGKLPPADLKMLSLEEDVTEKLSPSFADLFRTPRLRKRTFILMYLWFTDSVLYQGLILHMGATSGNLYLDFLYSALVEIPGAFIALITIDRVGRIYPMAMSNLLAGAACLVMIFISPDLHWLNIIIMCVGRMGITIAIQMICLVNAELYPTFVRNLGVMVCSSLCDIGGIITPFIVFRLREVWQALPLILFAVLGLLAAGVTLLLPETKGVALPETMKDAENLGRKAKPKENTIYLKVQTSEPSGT

male Swiss CD-1 mice = test: Core body temperature; type: in vivo; conditions: 10 mg/kg i.p., 22 ± 1 °C and 28 ± 1 °C, compared with MDMA and SDMA
Protocol: as §1
Changes in body temperature were measured by means of subcutaneously implanted temperature transponders (IPTT-300; Bio Medic Data Systems, Inc., DE, USA). Seven mice were used per group. […] Subsequently, core body temperature measures were taken for 1 h, every 10 min before administration, using a DAS-8007 Wireless Reader System (Bio Medic Data Systems, Inc.), to establish a baseline. […]

[2] = Metabolic stability, substrate depletion in pooled human liver microsomes; conditions: for CLint scaled at 0.5 μM / half-life at 0.5 μM / microsomal CLint at 0.5 μM: human, pooled human liver microsomes; for clearance classification: pHLM
5-HT2B = target: T2, 5-HT2B (Homo sapiens, UniProt P41595); test: Gq dissociation BRET assay in HEK293T cells; type: cell-based; conditions: for EC50: Gq dissociation BRET, read-out: EC50 5-HT2B; for Emax: HEK-293T, read-out: Emax ± SEM, %5-HT response 5-HT2B
T2 construct: expressed in transfected cells; host or cells: HEK293T (ATCC; RRID:CVCL_0063), transient transfection
T2 sequence (P41595 whole entry): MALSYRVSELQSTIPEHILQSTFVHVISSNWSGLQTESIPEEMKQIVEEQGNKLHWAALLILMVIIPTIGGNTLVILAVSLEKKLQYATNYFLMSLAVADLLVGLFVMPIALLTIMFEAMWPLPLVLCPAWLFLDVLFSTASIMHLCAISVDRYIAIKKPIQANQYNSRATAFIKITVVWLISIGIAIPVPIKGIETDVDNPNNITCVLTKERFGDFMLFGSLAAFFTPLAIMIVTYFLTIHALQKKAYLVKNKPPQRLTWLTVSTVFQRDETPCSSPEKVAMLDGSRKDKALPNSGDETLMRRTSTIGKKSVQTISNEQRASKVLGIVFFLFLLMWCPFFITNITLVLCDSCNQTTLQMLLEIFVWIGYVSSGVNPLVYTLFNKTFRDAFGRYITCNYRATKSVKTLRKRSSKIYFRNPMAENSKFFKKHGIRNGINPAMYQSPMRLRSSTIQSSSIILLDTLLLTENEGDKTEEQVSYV

OCT2 = target: T3, OCT2 (Homo sapiens, UniProt O15244); test: Uptake inhibition assay, [3H]MPP+ uptake in HEK293 cells
T3 sequence (O15244 1-555): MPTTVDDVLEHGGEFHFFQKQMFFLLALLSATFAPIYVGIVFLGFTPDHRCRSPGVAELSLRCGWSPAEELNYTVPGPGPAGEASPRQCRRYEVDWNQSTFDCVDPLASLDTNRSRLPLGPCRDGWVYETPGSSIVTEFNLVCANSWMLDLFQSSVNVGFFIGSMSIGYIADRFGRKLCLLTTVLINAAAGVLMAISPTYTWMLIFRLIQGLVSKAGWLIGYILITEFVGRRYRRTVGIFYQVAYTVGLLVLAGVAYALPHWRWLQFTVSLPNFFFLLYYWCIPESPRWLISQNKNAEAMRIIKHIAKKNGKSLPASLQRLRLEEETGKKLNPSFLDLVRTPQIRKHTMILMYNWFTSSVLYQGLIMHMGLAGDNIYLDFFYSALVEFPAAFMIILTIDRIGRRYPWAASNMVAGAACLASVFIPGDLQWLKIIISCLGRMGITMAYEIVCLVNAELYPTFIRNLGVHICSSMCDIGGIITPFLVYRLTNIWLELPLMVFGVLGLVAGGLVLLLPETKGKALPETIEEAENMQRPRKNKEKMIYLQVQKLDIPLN

| SMILES | HTR counts (male C57BL/6J mice) | IC50 [1] [µM] | core body temperature changes (male Swiss CD-1 mice) | CLint scaled at 0.5 μM [2] [mL/min/kg] | half-life at 0.5 μM [2] [h] | microsomal CLint at 0.5 μM [2] [µL/min/mg] | clearance classification [2] | EC50 (5-HT2B) [µM] | Emax (5-HT2B) [%] | IC50 (OCT2) [µM] |
| --- | --- | --- | --- | --- | --- | --- | --- | --- | --- | --- |
| CC(N)Cc1ccc2c(c1)SCO2 (stereo not shown) [SDA, 1-(1,3-benzoxathiol-5-yl)propan-2-amine] | dose-related increase in HTR counts peaking at 3 mg/kg | 3.65 ± 0.27 | significantly increased and prolonged core temperature changes | 9.7 | 1.02 | 11.4 | low clearance compounds | 0.0415 | 88.2 ± 3.7 | 5.7 ± 0.6 |
| CNC(C)Cc1ccc2c(c1)SCO2 (stereo not shown) [SDMA, 1-(1,3-benzoxathiol-5-yl)-N-methylpropan-2-amine] | Neither MDMA nor SDMA induced an appreciable increase in HTR counts | 4.39 ± 2.84 |  | 8.4 | 1.18 | 9.8 | low clearance compounds | 0.357 | 70 ± 3.4 | 4.13 ± 0.6 |
